Patent US20090163451A1, “METHODS FOR TREATING VISCERAL PAIN” (priority 2007, published 2009)
Entries after “also recorded” stand apart in the source; their conditions may differ.

How the values were obtained:
[1] = tested on: spinal neurons, colorectal distention (CRD); details: microinjection into the RVM (Zhuo et al.); cited from earlier work
[2] = tested on: referred visceral hypersensitivity induced by pancreatic inflammation; details: microinjection into the RVM (Vera-Portocarrero et al. 2006); cited from earlier work
[3] = tested on: rats with experimental pancreatitis (DBTC), referred abdominal hypersensitivity; assay: experimental pancreatitis model (IV DBTC): referred abdominal hypersensitivity, withdrawals to von Frey filament; assay type: in vivo, Sprague Dawley rats; details: DBTC rats; for effect of concurrent RVM antagonist on the effect of RVM sumatriptan: sumatriptan 10 μg RVM; for effect of concurrent RVM antagonist on the effect of RVM sumatriptan / effect of RVM antagonist on the effect of systemic sumatriptan: antagonist 3 μg RVM
Method: (§1) Adult male Sprague Dawley rats (Harlan, Indianapolis, Ind.), weighing 150-200 g, were maintained in a climate-controlled room with ad lib food and water on a 12 hour/12 hour light/dark cycle (lights on at 07:00 hours). All procedures followed the policies of the International Association for the Study of Pain and the NIH guidelines for the handling and use of laboratory animals. Studies were approved by the University of Arizona IACUC.
(§2) Dibutyltin dichloride (DBTC) was obtained from Sigma-Aldrich (Milwaukee, Wis.) and dissolved in 100% ethanol to a concentration of 8 mg/kg (Sparmann et al., Gastroenterology. 112:1664-1672 (1997))). Sumatriptan succinate was obtained from Toronto Research Chemicals (ON, Canada) and dissolved in saline to 1, 3, and 10 μg for RVM microinjections and 100, 200, and 300 μg/kg for systemic injections (Kayser et al., Br J Pharmacol. 137:1287-1297 (2002)). The 5HT1B antagonist isamoltane and the 5HT1D antagonist BRL15722 were obtained from Tocris (Elllisville, Mo.). Isamoltane was dissolved in saline to a concentration of 3 μg for RVM microinjection and to a concentration of 4 mg/kg (Ottani et al., Eur J Pharmacol. 497:181-186 (2004)) for system application. BRL15722 was dissolved in 10% DMSO to a concentration of 3 μg for RVM microinjection and to a concentration of 0.3 mg/kg (Ottani et al., Eur J Pharmacol. 497:181-186 (2004)) for systemic application.
For the experiments involving microinjection of drugs into the RVM, rats underwent surgeries to implant RVM cannulae. After five days of recovery, rats received either intravenous injection of DBTC to induce pancreatitis, or intracolonic injection of sodium butyrate to induce colonic hypersensitivity. Animals were monitored for development of visceral hypersensitivity on the subsequent days. On day six after either induction of pancreatitis or colonic hypersensitivity, animals underwent baseline behavioral measurements. […] For experiments investigating the effects of serotonin antagonists, the drugs were microinjected concurrently with injection of sumatriptan and animals were monitored for the subsequent two h. Separate groups of animals were microinjected with the antagonists alone to control for possible effects of the drugs by themselves.
For the experiments involving systemic drug administration, rats received intravenous injection of DBTC to induce pancreatitis or intracolonic injection of sodium butyrate to induce colonic hypersensitivity. On day six after either induction of pancreatitis of colonic hypersensitivity, animals underwent baseline behavioral measurements. […] Separate groups of animals were injected with the antagonists alone. Additionally, separate groups of animals were injected with sumatriptan systemically and microinjected with the antagonists in the RVM to determine if the RVM is a site of action for systemically applied sumatriptan. The microinjection of antagonists into the RVM was done immediately following the systemic injection of sumatriptan. All animals were tested for behavioral signs of hypersensitivity every 20 min for two h after the end of the injections.
Pancreatitis was produced by a tail vein injection of dibutyltin dichloride (DBTC, Aldrich, Milwaukee, Wis., 0.25 cc) dissolved in 100% ethanol at a dose of 8 mg/kg under isofluorane anesthesia (2-3 liters/min, 4.0%/vol until anesthetized, then 2.5%/vol throughout the procedure; Vera-Portocarrero et al., Gastroenterology. 130:2155-2164 (2006)). Control animals were injected with the vehicle solution only (100% ethanol, 0.25 mL).
Referred abdominal hypersensitivity in the pancreatitis model was quantified by measuring the number of withdrawal events evoked by application of a calibrated von Frey filament (determined by either abdominal withdrawal, licking of the abdominal area, or whole body withdrawal). Rats were placed inside Plexiglas boxes on an elevated fine fiberglass screen mesh and acclimated for 30 minutes before testing. […]

[4] = tested on: rats with experimental colonic hypersensitivity (butyrate), referred lumbar hypersensitivity; assay: colonic hypersensitivity model (intracolonic sodium butyrate): referred lumbar hypersensitivity, von Frey mechanical threshold; assay type: in vivo, Sprague Dawley rats; details: butyrate rats; for effect of concurrent RVM antagonist on the effect of RVM sumatriptan: sumatriptan 10 μg RVM; for effect of concurrent systemic (IP) antagonist on the effect of systemic sumatriptan: isamoltane 4 mg/kg IP or BRL15722 0.3 mg/kg IP
Method: as §1, §2
For the experiments involving microinjection of drugs into the RVM, rats underwent surgeries to implant RVM cannulae. After five days of recovery, rats received either intravenous injection of DBTC to induce pancreatitis, or intracolonic injection of sodium butyrate to induce colonic hypersensitivity. Animals were monitored for development of visceral hypersensitivity on the subsequent days. On day six after either induction of pancreatitis or colonic hypersensitivity, animals underwent baseline behavioral measurements. Sumatriptan was microinjected into the RVM at different doses (separate groups of rats for each dose) and animals were monitored behaviorally for two h after sumatriptan application in the RVM. For experiments investigating the effects of serotonin antagonists, the drugs were microinjected concurrently with injection of sumatriptan and animals were monitored for the subsequent two h. Separate groups of animals were microinjected with the antagonists alone to control for possible effects of the drugs by themselves.
For the experiments involving systemic drug administration, rats received intravenous injection of DBTC to induce pancreatitis or intracolonic injection of sodium butyrate to induce colonic hypersensitivity. On day six after either induction of pancreatitis of colonic hypersensitivity, animals underwent baseline behavioral measurements. Sumatriptan was injected intraperitoneally at different doses (separate groups of rats for each dose) and the animals were monitored behaviorally every 20 min for two h after injection. For experiments investigating the effects of serotonin antagonists, the drugs were injected intraperitoneally immediately following the injection of sumatriptan (separate groups for each respective antagonist). Separate groups of animals were injected with the antagonists alone. Additionally, separate groups of animals were injected with sumatriptan systemically and microinjected with the antagonists in the RVM to determine if the RVM is a site of action for systemically applied sumatriptan. The microinjection of antagonists into the RVM was done immediately following the systemic injection of sumatriptan. All animals were tested for behavioral signs of hypersensitivity every 20 min for two h after the end of the injections.
Colonic hypersensitivity was induced by enemas of a sodium butyrate solution ([…]) twice daily for 3 days (Bourdu et al., Gastroenterology. 128:1996-2008 (2005)). […]

[5] = sumatriptan 300 μg/kg IP, listed as BRL1 5722

SMILES | spontaneous activity and responses of spinal neurons to colorectal distention [1] | referred visceral hypersensitivity induced by pancreatic inflammation [2] | effect of concurrent RVM antagonist on the effect of RVM sumatriptan [3] | effect of concurrent RVM antagonist on the effect of RVM sumatriptan ([3]; listed as BRL1 5722) | effect of RVM antagonist on the effect of systemic sumatriptan ([3]; sumatriptan 300 μg/kg IP) | effect of RVM antagonist on the effect of systemic sumatriptan [3, 5] | effect of concurrent systemic (IP) antagonist on the effect of systemic sumatriptan ([3]; sumatriptan 300 μg/kg IP, isamoltane 4 mg/kg IP or BRL15722 0.3 mg/kg IP) | effect of concurrent RVM antagonist on the effect of RVM sumatriptan ([4]; antagonist 3 μg RVM) | effect of concurrent RVM antagonist on the effect of RVM sumatriptan ([4]; antagonist 3 μg RVM, listed as BRL1 5722) | effect of RVM antagonist on the effect of systemic sumatriptan ([4]; sumatriptan 300 μg/kg IP, antagonist 3 μg RVM) | effect of concurrent systemic (IP) antagonist on the effect of systemic sumatriptan ([4]; sumatriptan 300 μg/kg IP) | effect of concurrent systemic (IP) antagonist on the effect of systemic sumatriptan [4, 5]
CCN(CC)CC(=O)Nc1c(C)cccc1C [lidocaine] | reduced spontaneous activity and responses of spinal neurons to colorectal distention; also recorded: reduced spontaneous activity and responses of spinal neurons to CRD | attenuated referred visceral hypersensitivity | – | – | – | – | – | – | – | – | – | –
OC(CN1CCN(c2cccc(Cl)c2)CC1)C(c1ccccc1)c1ccccc1 (stereo not drawn) [BRL15722] | – | – | did not block the effect of RVM sumatriptan | did not have any effect | did not block the effect of sumatriptan | failed to antagonize the effects of systemic sumatriptan | reduced the effects of systemic sumatriptan; also recorded: blocked the effect of sumatriptan | did not block the effect of RVM sumatriptan | did not have any effect | failed to antagonize the effects of systemic sumatriptan; also recorded: did not block the effect of systemic sumatriptan | blocked the effect of systemic sumatriptan | reduced the effects of systemic sumatriptan
